Each structure is given as a SMILES string.

As usually defined, the IC50 is the concentration that gives 50% inhibition. Lower therefore signals higher potency. A word on the Km: it is the concentration of substrate that gives half-maximal velocity. The Vmax is the rate approached at saturating substrate.

Data set [1] in a line: Inhibition of yeast alpha-glucosidase using 4-nitrophenyl-alpha-D-glucopyranoside as substrate incubated for 15 mins by spectrophotometric method. On the set-up: species or system Saccharomyces cerevisiae.
The next data set deals with Alpha glucosidase (Homo sapiens, UniProt O43451+P10253+P14410+Q2M2H8). Briefly: Inhibition of alpha-glucosidase (unknown origin). It counts as protein assay.
The test system of another data set is BHK-21. Briefly: Cytotoxicity against BHK21 cells. It counts as cell-based, Mesocricetus auratus. As to conditions: hamster.
Another data set has as its system yeast alpha-glucosidase. Briefly: Ratio of IC50 for BHK21 cells to IC50 for yeast alpha-glucosidase. To be noted: hamster, read-out: Ratio IC50. It counts as toxicity.
Data set [2] in a line: Inhibition of yeast alpha-glucosidase using nitrophenol-D-glucopyranoside as substrate incubated for 15 mins. On the set-up: species or system Saccharomyces cerevisiae.
In data set [3] the test system is Saccharomyces cerevisiae. Briefly: Competitive inhibition of yeast alpha-glucosidase assessed as apparent Km for substrate at 8 uM using p-nitrophenyl-alpha-D-glucopyranoside as substrate incubated for 30 mins by Lineweaver-Burk plot method.
The test system of data set [4] is Saccharomyces cerevisiae. Briefly: Competitive inhibition of yeast alpha-glucosidase assessed as apparent Km for substrate at 10 uM using p-nitrophenyl-alpha-D-glucopyranoside as substrate incubated for 30 mins by Lineweaver-Burk plot method.
In data set [5] the test system is Saccharomyces cerevisiae. Briefly: Competitive inhibition of yeast alpha-glucosidase assessed as apparent Km for substrate at 6 uM using p-nitrophenyl-alpha-D-glucopyranoside as substrate incubated for 30 mins by Lineweaver-Burk plot method.
Data set [6] deals with Saccharomyces cerevisiae. Kind of data set: Competitive inhibition of yeast alpha-glucosidase assessed as Vmax for substrate at 4 uM using p-nitrophenyl-alpha-D-glucopyranoside as substrate incubated for 30 mins by Lineweaver-Burk plot method.
For data set [7], the system named is Saccharomyces cerevisiae. Kind of data set: Competitive inhibition of yeast alpha-glucosidase assessed as Vmax for substrate at 10 uM using p-nitrophenyl-alpha-D-glucopyranoside as substrate incubated for 30 mins by Lineweaver-Burk plot method.
Data set [8] deals with Saccharomyces cerevisiae. Kind of data set: Competitive inhibition of yeast alpha-glucosidase assessed as apparent Km for substrate at 2 uM using p-nitrophenyl-alpha-D-glucopyranoside as substrate incubated for 30 mins by Lineweaver-Burk plot method.
In data set [9] the test system is Saccharomyces cerevisiae. Briefly: Competitive inhibition of yeast alpha-glucosidase assessed as Vmax for substrate at 6 uM using p-nitrophenyl-alpha-D-glucopyranoside as substrate incubated for 30 mins by Lineweaver-Burk plot method.
Data set [10] has as its system Saccharomyces cerevisiae. Kind of data set: Competitive inhibition of yeast alpha-glucosidase assessed as Vmax for substrate at 2 uM using p-nitrophenyl-alpha-D-glucopyranoside as substrate incubated for 30 mins by Lineweaver-Burk plot method.
The subject of data set [11] is Saccharomyces cerevisiae. Kind of data set: Competitive inhibition of yeast alpha-glucosidase assessed as Vmax for substrate at 8 uM using p-nitrophenyl-alpha-D-glucopyranoside as substrate incubated for 30 mins by Lineweaver-Burk plot method.
Data set [12] relates to Saccharomyces cerevisiae. Kind of data set: Competitive inhibition of yeast alpha-glucosidase assessed as apparent Km for substrate at 4 uM using p-nitrophenyl-alpha-D-glucopyranoside as substrate incubated for 30 mins by Lineweaver-Burk plot method.

For the molecule `Cc1cc2c(c(=O)[nH]1)C(=O)OC2C1(O)C(=O)N(C)c2ccc(Br)cc21` (stereo not given), the IC50 in data set [1] worked out at 36.1 µM. This counts as double-digit micromolar.

In the case of `Cc1cc(C(=O)C2C(=O)N(Cc3ccccc3)c3ccccc32)c(C(=O)N2CCCCC2)c(=O)[nH]1` (stereo not given), the IC50 in [1] was 3.01 µM.

For the molecule `Cc1cc2c(c(=O)[nH]1)C(=O)OC2C1(O)C(=O)N(Cc2ccccc2)c2ccc(Br)cc21` (stereo not given), inhibition in [1] was half-maximal at 42.5 µM (IC50).

Regarding `Cc1cc(C(=O)C2C(=O)N(C)c3ccc(F)cc32)c(C(=O)N2CCCCC2)c(=O)[nH]1` (stereo not given), in data set [1], it took 10 µM to reach half-maximal inhibition (IC50).

On to `Cc1cc2c(c(=O)[nH]1)C(=O)O/C2=C1\C(=O)Nc2ccc(Br)cc21`, for which the IC50 in data set [1] turned out to be 33 µM.

Turning to `Cc1cc(/C(O)=C2/C(=O)N(C)c3ccc(Br)cc32)c(C(=O)N2CCCCC2)c(=O)[nH]1`, in data set [1], the IC50 was found to be 6.41 µM.

Take `Cc1cc(C(=O)C2C(=O)Nc3ccc([N+](=O)[O-])cc32)c(C(=O)N2CCCCC2)c(=O)[nH]1` (stereo not given): the IC50 in data set [1] was found to be 4.56 µM.

`CCC1NC(CC)C(O)C(O)C1O` (stereo not given) returned a concentration for half-maximal inhibition (IC50) against Alpha glucosidase of 10 µM. This lies in the double-digit micromolar range.

Turning to `Cc1cc(/C(O)=C2/C(=O)Nc3ccc(Br)cc32)c(C(=O)N2CCCCC2)c(=O)[nH]1`, the Activity result in the data set on BHK-21 is “Non-Toxic”. The molecule further displayed an IC50 in data set [1] of 2.03 µM. Besides, the selectivity ratio with yeast alpha-glucosidase is 100.

As for `C[C@H]1O[C@H](O[C@H]2[C@H](O)[C@@H](O)[C@@H](O[C@H]3[C@H](O)[C@@H](O)C(O)O[C@@H]3CO)O[C@@H]2CO)[C@H](O)[C@@H](O)[C@@H]1N[C@H]1C=C(CO)[C@@H](O)[C@H](O)[C@H]1O` (stereo not given in full) [ACARBOSE], in [1], the half-maximal inhibitory concentration (IC50) turned out to be 4.02 µM.

For `Cc1cc2c(c(=O)[nH]1)C(=O)OC2C1(O)C(=O)N(C)c2ccccc21` (stereo not given), the midpoint of inhibition in [1], the IC50, lay at 27.6 µM.

As to `Cc1cc(C(=O)C2C(=O)N(Cc3ccccc3)c3ccc(F)cc32)c(C(=O)N2CCCCC2)c(=O)[nH]1` (stereo not given), in data set [1], 8.21 µM corresponded to half-maximal inhibition (IC50).

At Alpha glucosidase, `Nc1ccn(C2OC(CO)[C@@H](O)[C@H]2O)c(=O)n1` (stereo not given in full) displayed a half-maximal inhibitory concentration (IC50) of 2.5 µM.

As for `Cc1cc2c(c(=O)[nH]1)C(=O)O/C2=C/c1cc(Br)cs1`, the IC50 in data set [2] stood at 0.24 µM.

Regarding `Cc1cc(C(=O)C2C(=O)N(C)c3ccccc32)c(C(=O)N2CCCCC2)c(=O)[nH]1` (stereo not given), the IC50 in data set [1] was determined as 10.2 µM.

Regarding `Cc1cc(C(=O)C2C(=O)N(Cc3ccccc3)c3ccc(Br)cc32)c(C(=O)N2CCCCC2)c(=O)[nH]1` (stereo not given), in the data set on BHK-21, the Activity result is recorded as “Non-Toxic”. Also, the IC50 in data set [1] was determined as 2.21 µM. Moreover, the selectivity ratio in the data set with yeast alpha-glucosidase was determined as 100.

Regarding `Cc1cc(C(=O)C2C(=O)Nc3ccc(F)cc32)c(C(=O)N2CCCCC2)c(=O)[nH]1` (stereo not given), the Km with Saccharomyces cerevisiae [3] was found to be 2.54 µM; with Saccharomyces cerevisiae [4], 2.92 µM; in the data set on Saccharomyces cerevisiae [5] it was 1.8 µM; with Saccharomyces cerevisiae [8], 1.64 µM; with Saccharomyces cerevisiae [12], 1.79 µM. For the same molecule, the maximum rate (Vmax) in the data set with Saccharomyces cerevisiae [6] worked out at 40 µM/min; in the data set on Saccharomyces cerevisiae [7], 40 µM/min; with Saccharomyces cerevisiae [9] it was 40 µM/min; with Saccharomyces cerevisiae [10], 41.6 µM/min; with Saccharomyces cerevisiae [11] it was 41.6 µM/min. In addition, the Activity result with BHK-21 is “Non-Toxic”. In addition, the IC50 in [1] stood at 0.646 µM. Besides, the selectivity ratio in the data set on yeast alpha-glucosidase is 100.

With `Cc1cc2c(c(=O)[nH]1)C(=O)O/C2=C1\C(=O)Nc2ccccc21`, the half-inhibitory concentration (IC50) in data set [1] turned out to be 47.2 µM. That is a double-digit micromolar value.

With `Cc1cc(C(=O)C2C(=O)Nc3ccccc32)c(C(=O)N2CCCC2)c(=O)[nH]1` (stereo not given), in the data set with BHK-21, the Activity entry is recorded as “Non-Toxic”. For the same molecule, the half-inhibitory concentration (IC50) in data set [1] was 2.61 µM. Also, the selectivity ratio in the data set on yeast alpha-glucosidase came to 100.

Regarding `Cc1cc(C(=O)C2C(=O)Nc3ccccc32)c(C(=O)N2CCCCC2)c(=O)[nH]1` (stereo not given), the Activity result with BHK-21 is on record as “Non-Toxic”. Moreover, in data set [1], the 50% inhibitory concentration (IC50) was determined as 2.67 µM. For the same molecule, the selectivity ratio with yeast alpha-glucosidase turned out to be 100.

The values above are taken from ChEMBL document CHEMBL4229553, “Design, synthesis and in vitro study of densely functionalized oxindoles as potent α-glucosidase inhibitors” (Bioorg Med Chem, 2018).
